Results reported in ChEMBL document CHEMBL5053556, “Design, Synthesis, and Biological Evaluation of a Novel Series of Teriflunomide Derivatives as Potent Human Dihydroorotate Dehydrogenase Inhibitors for Malignancy Treatment” (J Med Chem, 2021).

Tests used:
SUD4 = assay: Antiproliferative activity against human SU-DHL-4 cells assessed as cell growth inhibition incubated for 96 hrs by MTT assay; assay type: functional, cell-based; conditions: SU-DHL-4, 96 h
[1] = AUC(0 to t) in Sprague-Dawley rat at 15 mg/kg, po measured after 48 hrs by LC-MS analysis; assay type: ADME, organism-based; set-up: dose 15 mg/kg, time 48 hrs, route po; conditions: in vivo
Raji [2] = assay: Induction of cell cycle arrest in human Raji cells assessed as accumulation of cells at S phase at 0.5 uM after 24 hrs by propidium iodide staining based flow cytometric analysis (reference value: 45.7%); assay type: functional
[3] = Acute toxicity in BALB/c mouse assessed as effect on liver at 400 mg/kg, po measured on day 14 by H and E staining based assay; assay type: organism-based; conditions: in vivo, 336 h, time 14 day
[4] = Drug distribution in NOD-SCID mouse tumor at 40 mg/kg, po administered for 25 days by LC-MS analysis; assay type: ADME, organism-based, Neoplasm; conditions: in vivo, 600 h, time 25 day
Raji [5] = assay: Antiproliferative activity against human Raji cells assessed as cell growth inhibition at 0.2 uM incubated for 96 hrs by MTT assay; assay type: functional; set-up: scale not given: the % may be the effect or the level left
[6] = Half life in Sprague-Dawley rat at 5 mg/kg, iv measured after 48 hrs by LC-MS analysis; assay type: ADME, organism-based; conditions: in vivo
[7] = Plasma protein binding in rat at 10 uM incubated for 5 hrs by LC-MS analysis; assay type: ADME, cell-free; conditions: read-out: PPB (converted)
[8] = AUC(0 to t) in Sprague-Dawley rat at 5 mg/kg, iv measured after 48 hrs by LC-MS analysis; assay type: ADME, organism-based; set-up: time 48 hrs, dose 5 mg/kg, route iv; conditions: in vivo, 48 h
[9] = Tmax in Sprague-Dawley rat at 15 mg/kg, po measured after 48 hrs by LC-MS analysis; assay type: ADME, organism-based; conditions: in vivo
[10] = Acute toxicity in BALB/c mouse assessed effect on feeding at 400 mg/kg, po; assay type: organism-based; conditions: in vivo
Raji [11] = assay: Induction of cell cycle arrest in human Raji cells assessed as accumulation of cells at S phase at 0.25 uM after 24 hrs by propidium iodide staining based flow cytometric analysis (reference value: 45.7%); assay type: functional
Raji [12] = assay: Antiproliferative activity against human Raji cells assessed as cell growth inhibition incubated for 96 hrs by MTT assay; assay type: functional, cell-based
Raji [13] = assay: Induction of cell cycle arrest in human Raji cells assessed as accumulation of cells at S phase at 0.125 uM after 24 hrs by propidium iodide staining based flow cytometric analysis (reference value: 45.7%); assay type: functional
Raji [14] = assay: Antiproliferative activity against human Raji cells assessed as cell growth inhibition at 0.4 uM preincubated with uridine for 24 hrs followed by compound addition and measured after 72 hrs by MTT assay; assay type: functional; set-up: scale not given: the % may be the effect or the level left
[15] = Drug distribution in NOD-SCID mouse lung at 40 mg/kg, po administered for 25 days by LC-MS analysis; assay type: ADME, organism-based; conditions: in vivo, 600 h, time 25 day
Mus musculus [16] = assay: Toxicity in NOD-SCID mouse xenografted with human Raji cells assessed as change in uric acid level at 40 mg/kg, po administered for 25 days; assay type: organism-based; conditions: in vivo, 600 h, time 25 day
Raji [17] = assay: Antitumor activity against human Raji cells xenografted in NOD-SCID mouse assessed as tumor growth inhibition at 40 mg/kg, po administered for 25 days; assay type: functional; conditions: 600 h, time 25 day, read-out: TGI
Raji [18] = assay: Antitumor activity against human Raji cells xenografted in NOD-SCID mouse assessed as tumor growth inhibition at 30 mg/kg, po administered for 25 days; assay type: functional; conditions: 600 h, time 25 day, read-out: TGI
[19] = biological target: T1, Dihydroorotate dehydrogenase (quinone), mitochondrial (Homo sapiens, UniProt Q02127); conditions: dose 100.0 nM, time 30.0 min
T1 sequence (Q02127 whole entry): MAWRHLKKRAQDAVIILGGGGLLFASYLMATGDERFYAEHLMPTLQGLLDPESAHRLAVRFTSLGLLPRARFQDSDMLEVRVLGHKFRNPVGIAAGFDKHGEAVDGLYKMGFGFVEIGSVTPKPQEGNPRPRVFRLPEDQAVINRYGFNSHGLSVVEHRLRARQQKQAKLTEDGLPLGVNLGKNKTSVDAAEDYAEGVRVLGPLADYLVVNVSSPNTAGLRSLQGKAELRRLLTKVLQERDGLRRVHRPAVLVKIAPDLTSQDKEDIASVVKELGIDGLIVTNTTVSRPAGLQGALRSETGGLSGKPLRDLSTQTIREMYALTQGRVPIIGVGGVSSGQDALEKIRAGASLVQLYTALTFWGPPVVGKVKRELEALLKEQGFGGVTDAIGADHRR

[20] = Acute toxicity in BALB/c mouse assessed as effect on heart at 400 mg/kg, po measured on day 14 by H and E staining based assay; assay type: organism-based; conditions: in vivo, 336 h, time 14 day
L02 = assay: cells; assay type: ADME, cell-based; conditions: Homo sapiens, L02, 96 h
Description: Cytotoxicity against human L02 cells assessed as cell growth inhibition incubated for 96 hrs by MTT assay

HL-60 = assay: Antiproliferative activity against human HL-60 cells assessed as cell growth inhibition incubated for 96 hrs by MTT assay; assay type: functional, cell-based; conditions: HL-60, 96 h
[21] = Drug distribution in NOD-SCID mouse liver at 40 mg/kg, po administered for 25 days by LC-MS analysis; assay type: ADME, organism-based; conditions: in vivo, 600 h, time 25 day
SU-DHL-6 = assay: Antiproliferative activity against human SU-DHL-6 cells assessed as cell growth inhibition incubated for 96 hrs by MTT assay; assay type: functional, cell-based; conditions: SU-DHL-6, 96 h
[22] = Acute toxicity in BALB/c mouse assessed effect on body weight at 400 mg/kg, po; assay type: organism-based; conditions: in vivo
[23] = Acute toxicity in BALB/c mouse assessed as effect on lung at 400 mg/kg, po measured on day 14 by H and E staining based assay; assay type: organism-based; conditions: in vivo, 336 h, time 14 day
Daudi = assay: Antiproliferative activity against human Daudi cells assessed as cell growth inhibition incubated for 96 hrs by MTT assay; assay type: functional, cell-based
Raji [24] = assay: Antiproliferative activity against human Raji cells assessed as cell growth inhibition at 0.1 uM preincubated with uridine for 24 hrs followed by compound addition and measured after 72 hrs by MTT assay; assay type: functional; set-up: scale not given: the % may be the effect or the level left
[25] = Cmax in Sprague-Dawley rat at 15 mg/kg, po measured after 48 hrs by LC-MS analysis; assay type: ADME, organism-based; set-up: dose 15 mg/kg, time 48 hrs, route po; conditions: in vivo
[26] = Plasma protein binding in rat at 0.1 uM incubated for 5 hrs by LC-MS analysis; assay type: ADME, cell-free; conditions: read-out: PPB (converted)
[27] = biological target: T1, Dihydroorotate dehydrogenase (quinone), mitochondrial
Description: Inhibition of human DHODH using dihydroorotate substrate preincubated for 30 mins followed by substrate addition by DCIP based microplate reader analysis

[28] = Clearance in Sprague-Dawley rat at 15 mg/kg, po measured after 48 hrs by LC-MS analysis; assay type: ADME, organism-based; conditions: in vivo
THP-1 = assay: Antiproliferative activity against human THP-1 cells assessed as cell growth inhibition incubated for 96 hrs by MTT assay; assay type: functional, cell-based; conditions: THP-1, 96 h
Mus musculus [29] = assay: Toxicity in NOD-SCID mouse xenografted with human Raji cells assessed as change in ALT level at 40 mg/kg, po administered for 25 days; assay type: organism-based; conditions: in vivo, 600 h, time 25 day
[30] = Plasma protein binding in rat at 1 uM incubated for 5 hrs by LC-MS analysis; assay type: ADME, cell-free; conditions: read-out: PPB (converted)
Raji [31] = assay: Antiproliferative activity against human Raji cells assessed as cell growth inhibition at 0.4 uM incubated for 96 hrs by MTT assay; assay type: functional; set-up: scale not given: the % may be the effect or the level left
[32] = Clearance in Sprague-Dawley rat at 5 mg/kg, iv measured after 48 hrs by LC-MS analysis; assay type: ADME, organism-based; conditions: in vivo, iv, 5 mg/kg, 48 h
Raji [33] = assay: Antiproliferative activity against human Raji cells assessed as cell growth inhibition at 0.1 uM incubated for 96 hrs by MTT assay; assay type: functional; set-up: scale not given: the % may be the effect or the level left
[34] = Oral bioavailability in Sprague-Dawley rat at 15 mg/kg measured after 48 hrs by LC-MS analysis; assay type: ADME, organism-based; conditions: in vivo
[35] = Acute toxicity in BALB/c mouse assessed change in behavior at 400 mg/kg, po; assay type: organism-based; conditions: in vivo
Mus musculus [36] = assay: Toxicity in NOD-SCID mouse xenografted with human Raji cells assessed as change in UREAL at 40 mg/kg, po administered for 25 days; assay type: organism-based; conditions: in vivo, 600 h, time 25 day
Raji [37] = assay: Antiproliferative activity against human Raji cells assessed as cell growth inhibition at 0.2 uM preincubated with uridine for 24 hrs followed by compound addition and measured after 72 hrs by MTT assay; assay type: functional; set-up: scale not given: the % may be the effect or the level left
MV4-11 = assay: Antiproliferative activity against human MV4-11 cells assessed as cell growth inhibition incubated for 96 hrs by MTT assay; assay type: functional, cell-based; conditions: MV4-11, 96 h

`C/C(O)=C(\C#N)C(=O)Nc1cc(O[C@@H](C)C(F)(F)F)c(C(=O)Nc2c(F)cccc2F)cc1F` showed an IC50 (SUD4) of 20 nM, an AUC(0-t) at 48 h [1] of 29500 ng·h/mL and an Activity (Raji [2]) of 86.9%. For the same molecule, the Activity [3] was “Non-Toxic”, the Drug uptake [4] was “Active” and the Activity (Raji [5]) was 58.7%. It also gave a half-life [6] of 426 min, a fraction unbound at 5 h, 10 µM [7] of 0.007 and an AUCt [8] of 31.644 µg·h/mL. For the same molecule, the Tmax [9] was 18 h, the Activity [10] was “Non-Toxic” and the Activity (Raji [11]) was 70.3%. It also gave an IC50 (Raji [12]) of 7.7 nM, an Activity (Raji [13]) of 64.4% and an Activity (Raji [14]) of 21.3%. The Drug uptake [15] was “Active”, the Activity (Mus musculus [16]) was “Non-Toxic” and the inhibition in vivo at 40 mg/kg (Raji [17]) was 83.6%. For the same molecule, the inhibition in vivo at 30 mg/kg (Raji [18]) was 81.4%, the inhibition [19] was 88.9% and the Activity [20] was “Non-Toxic”. The IC50 (L02) was 518 nM, the IC50 (HL-60) was 20 nM and the Drug uptake [21] was “Active”. For the same molecule, the IC50 (SU-DHL-6) was 20 nM, the Activity [22] was “Non-Toxic” and the Activity [23] was “Non-Toxic”. It also gave an IC50 (Daudi) of 20 nM, an Activity (Raji [24]) of 6.2% and a Cmax [25] of 1270 ng/mL. It also gave a fraction unbound at 5 h, 0.1 µM [26] of 0.099, an IC50 [27] of 16 nM and a CL/F [28] of 10 mL/min/kg. The IC50 (THP-1) was 20 nM, the Activity (Mus musculus [29]) was “Non-Toxic” and the fraction unbound at 5 h, 1 µM [30] was 0.014. The Activity (Raji [31]) was 64.5%, the CL [32] was 0.6 L/h/kg and the Activity (Raji [33]) was 43.1%. For the same molecule, the bioavailability [34] was 31.1%, the Activity [35] was “Non-Toxic” and the Activity (Mus musculus [36]) was “Non-Toxic”. The Activity (Raji [37]) was 17.1% and the IC50 (MV4-11) was 20 nM.
